Legend:
liver cancer [1] = experiment: Liver cancer induction by oral deoxycholic acid in mice fed high-fat diets and given antibiotic cocktail; type: in vivo; details: 40 μg/g body weight orally three times a week; HFD + antibiotic cocktail; n=3
Method: From the 13th week after the start of the raising, the antibiotic cocktail was administered to mice fed high-fat diets, which were then further raised. To these mice, 40 μg/g body weight of deoxycholic acid (DCA) or only a vehicle as a control was orally administered three times a week (FIG. 6A). […] The mice given deoxycholic acid developed a large number of liver tumors (indicated by Δ in the diagram), whereas cancer development was rarely seen in the control mouse group given only the vehicle. […] The cancer was rarely developed in the control mouse group given only the vehicle, and even if the cancer was developed, its tumor size was small. On the other hand, the deoxycholic acid administration group had multiple cancer (25 or more tumors per individual), and also, its size was large.

liver cancer [2] = experiment: Liver cancer development in DMBA-treated mice fed high-fat diets, antibiotic in drinking water; type: in vivo; details: dissected at 30th week; antibiotic from 13 weeks old; compared with control
Description: An acetone solution containing 0.5% of the carcinogenic substance DMBA (7,12-dimethylbenz[a]anthracene) was applied once to the backs of wild-type (C57BL/6) neonatal mice. The neonatal mice were raised together with their mother mouse by feeding with normal diets (ND) or high-fat diet (HFD) until 4 weeks old. The high-fat diets used were D12492 (Rodent Diet with 60% kcal % Fat; Research Diets, Inc., USA). The neonatal mice were weaned at 4 weeks old and subsequently raised with normal diets or high-fat diet. At 30 weeks old, their livers and lungs were excised, and the presence or absence of cancer development was analyzed. The average body weight of the mice at the time of dissection was 33 g for the mice fed normal diets and 51 g for the mice fed high-fat diets. The mice fed high-fat diets had approximately 1.5 times the body weights of the mice fed normal diets.
DMBA was applied to wild-type neonatal mice, followed by high-fat diet feeding. From 13 weeks old, an antibiotic cocktail (4Abx, antibiotic cocktail administration group) or vancomycin (VCM, vancomycin administration group) mixed with drinking water was administered to the mice. At the 30th week after the start of the raising, their livers were excised, and liver cancer development was analyzed. […]
The mice of each group were dissected at the 30th week, and liver cancer development was analyzed (FIGS. 4C and 4D).

gut microbiota = experiment: Gut microbiota analysis by PCR of 16S rRNA gene from feces; type: in vivo, mice
Method: Next, alteration in gut microbiota caused by antibiotic administration conducted in Example 3 will be shown. In the experimental schedule shown in FIG. 4A, 3 groups were used: a group fed normal diets, a group fed high-fat diets, and a group fed high-fat diets and also given vancomycin. The gut microbiota was analyzed.
The gut microbiota was identified by PCR analysis (Non Patent Literatures 11 and 12). Specifically, DNA was extracted from the feces and purified. The gene encoding 16S rRNA in many types of bacteria was amplified by PCR using universal primers. The V1-V4 hypervariable regions were further amplified, followed by identification.

intestinal bacteria = experiment: Level of gene encoding intestinal bacterial 16S rRNA after antibiotic administration; type: in vivo, mice; details: 17 weeks after antibiotic administration, 30 weeks after birth; high-fat diet, drinking water
Method: DMBA was applied to wild-type neonatal mice, followed by high-fat diet feeding. From 13 weeks old, an antibiotic cocktail (4Abx, antibiotic cocktail administration group) or vancomycin (VCM, vancomycin administration group) mixed with drinking water was administered to the mice. At the 30th week after the start of the raising, their livers were excised, and liver cancer development was analyzed. On the other hand, the raising of a control group was continued in the same way as the aforementioned raising up to the 13th week. The antibiotic cocktail contained ampicillin (1 g/l), neomycin (1 g/l), metronidazole (1 g/l), and vancomycin (500 mg/l). Also, in the case of administering vancomycin alone, 500 mg/l was administered.

Row | tumor size (liver) (liver cancer [1]) | tumors per individual (liver) (liver cancer [1]) | SMILES | liver cancer development (tumor number and size) (liver cancer [2]) | Gram-negative microbiota, average (gut microbiota; HFD+VCM group, on average (FIG. 5)) [%] | cluster XI of the genus Clostridium (gut microbiota; high-fat diet plus vancomycin group, n=2) [%] | amount of intestinal bacteria (level of gene encoding 16S rRNA) (intestinal bacteria)
1 | large | ≥ 25 | C[C@H](CCC(=O)O)[C@H]1CC[C@H]2[C@@H]3CC[C@@H]4C[C@H](O)CC[C@]4(C)[C@H]3C[C@H](O)[C@]12C [deoxycholic acid] |  |  |  | 
2 |  |  | CN[C@H](CC(C)C)C(=O)N[C@H]1C(=O)N[C@@H](CC(N)=O)C(=O)N[C@H]2C(=O)N[C@H]3C(=O)N[C@H](C(=O)N[C@H](C(=O)O)c4cc(O)cc(O)c4-c4cc3ccc4O)[C@H](O)c3ccc(c(Cl)c3)Oc3cc2cc(c3O[C@@H]2O[C@H](CO)[C@@H](O)[C@H](O)[C@H]2O[C@H]2C[C@](C)(N)[C@H](O)[C@H](C)O2)Oc2ccc(cc2Cl)[C@H]1O [vancomycin] | developed no liver cancer or developed liver cancer with a smaller tumor number and a smaller size as compared with the control | 99 | 0 | decreased into a very small level

— patent US9856507B2, “Method for screening food ingredients and food compositions” (JAPANESE FOUNDATION FOR CANCER RESEARCH, priority 2013, dated 2018)
